From publication PMC5309722, “A substrate-bound structure of cyanobacterial biliverdin reductase identifies stacked substrates as critical for activity” (Nature Communications, 2017)

Experiments:
human BVR = molecular target: T1, human BVR (Homo sapiens, UniProt P53004); test: optical titration, difference absorption; type: binding; settings: 5 mM NADP+, 200 mM Tris-HCl pH 8.75, 28 °C; two biliverdins bound
T1 construct: gene BLVRA; C-terminal His tag (pET21a(+)), codon-optimized synthetic gene, E. coli BL21(DE3)
T1 sequence (P53004 1-296 limits assumed): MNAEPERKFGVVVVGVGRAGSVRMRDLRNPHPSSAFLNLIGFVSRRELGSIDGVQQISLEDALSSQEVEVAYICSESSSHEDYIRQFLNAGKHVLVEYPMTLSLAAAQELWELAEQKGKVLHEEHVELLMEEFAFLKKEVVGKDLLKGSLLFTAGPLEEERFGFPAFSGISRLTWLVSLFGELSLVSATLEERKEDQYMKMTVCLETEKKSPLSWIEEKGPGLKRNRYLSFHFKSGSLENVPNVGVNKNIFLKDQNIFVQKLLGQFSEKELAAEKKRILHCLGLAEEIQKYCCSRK

Syn BVR [1] = molecular target: T2, Syn BVR (Synechocystis sp. PCC 6803, UniProt P72782); test: X-ray crystal structure, co-crystal, […] Å; also optical titration; type: binding; settings: ternary complex with NADP+; two stacked biliverdins (proximal and distal) in active site
T2 construct: gene bvdR; full length, 328 residues; N-terminal His6 tag (pET15b), E. coli C41(DE3); tag cut with thrombin for crystals
T2 sequence (P72782 entry or part of it): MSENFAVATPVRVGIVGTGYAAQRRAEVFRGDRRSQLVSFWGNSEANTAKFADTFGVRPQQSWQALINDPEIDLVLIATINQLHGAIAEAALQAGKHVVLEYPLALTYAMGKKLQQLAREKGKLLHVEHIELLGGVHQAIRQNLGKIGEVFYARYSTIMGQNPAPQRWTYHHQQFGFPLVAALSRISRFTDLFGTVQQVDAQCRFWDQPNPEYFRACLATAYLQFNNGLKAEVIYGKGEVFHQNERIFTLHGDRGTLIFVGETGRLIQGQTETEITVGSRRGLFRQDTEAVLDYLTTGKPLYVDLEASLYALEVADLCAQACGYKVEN

rat BVR = molecular target: T3, rat BVR (Rattus norvegicus, UniProt P46844); test: optical titration, difference absorption; type: binding; settings: 5 mM NADP+, 200 mM Tris-HCl pH 8.75, 28 °C; two biliverdins bound
T3 construct: gene Blvra; C-terminal His tag (pET21a-rat bvr), E. coli BL21(DE3)
T3 sequence (P46844 1-295 limits assumed): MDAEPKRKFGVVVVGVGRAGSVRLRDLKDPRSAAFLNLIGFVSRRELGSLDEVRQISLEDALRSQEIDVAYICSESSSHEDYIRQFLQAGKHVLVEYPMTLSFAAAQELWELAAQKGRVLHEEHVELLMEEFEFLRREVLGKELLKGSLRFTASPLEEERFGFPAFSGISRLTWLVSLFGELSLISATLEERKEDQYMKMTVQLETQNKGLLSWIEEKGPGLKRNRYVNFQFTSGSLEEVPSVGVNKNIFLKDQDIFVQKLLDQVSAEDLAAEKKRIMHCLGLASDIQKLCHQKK

Syn BVR [2] = molecular target: T2, Syn BVR; test: reduction of biliverdin in crystal and solution; type: biochemical; settings: biliverdin as co-substrate; crystallization solution

| Compound | optical titration, difference absorption (human BVR) | X-ray crystal structure, co-crystal, 2.6 Å; also optical titration (Syn BVR [1]) | optical titration, difference absorption (rat BVR) | reduction of biliverdin in crystal and solution (Syn BVR [2]) |
| --- | --- | --- | --- | --- |
| C=CC1=C(C)/C(=C/c2[nH]c(/C=C3N=C(/C=C4\NC(=O)C(C)=C4C=C)C(C)=C\3CCC(=O)O)c(CCC(=O)O)c2C)NC1=O [biliverdin IXα] | two BV molecules bound in both human and rat BVRs | two BV molecules are bound to the catalytic cleft between the two domains | two BV molecules bound in both human and rat BVRs |  |
| NC(=O)C1=CN([C@@H]2O[C@H](COP(=O)(O)OP(=O)(O)OC[C@H]3O[C@@H](n4cnc5c(N)ncnc54)[C@H](OP(=O)(O)O)[C@@H]3O)[C@@H](O)[C@H]2O)C=CC1 [NADPH] |  |  |  | BV could be rapidly (as in the mixing time) reduced to BR by addition of NADPH |
